These results are taken from paper PMC8307506, “Identification of Dihydromyricetin and Metabolites in Serum and Brain Associated with Acute Anti-Ethanol Intoxicating Effects in Mice” (International Journal of Molecular Sciences, 2021).

One data set has as its target T1, α5β3γ2 GABAA receptors (Homo sapiens, UniProt P18507+P28472+P31644).
T1 construct: expressed in transfected cells; host or cells: Xenopus oocytes (injected with cDNA)
The data set can be described thus: Two-electrode voltage clamp electrophysiology in Xenopus oocytes in the presence of GABA. In kind it is cell-based. As to conditions: compound 10 µM, GABA 10 µM. The protocol: Xenopus oocytes were stored in incubation media (pH 7.5), consisting of ND96 supplemented with 2 mM sodium pyruvate, […] gentamycin, and 10 mL heat inactivated HyClone horse serum. Stage 4 to 5 oocytes were injected with 40 nL of cDNA coding for α5, β3, and γ2 subunits in a ratio of 1:1:10, utilizing a Drummond Nanoject III. Injected oocytes were stored at 18 °C and used in electrophysiology studies within 2–7 days of injection.
Whole cell two-electrode voltage clamp (TEVC) recording were conducted on oocytes in the presence of GABA, according to previously reported methods. Oocytes were voltage clamped at a membrane potential of −70 mV. The oocyte recording chamber was continuously perfused with modified bath solution (MBS) with select compound (10 µM) and GABA (10 µM), with a final concentration of 1% DMSO [22, 44]. […] Oocytes were perfused at a rate of 3 mL/min. Electrophysiology recordings were conducted in triplicate compound for each compound. The change of GABAAR activity was determined by comparison of GABAAR potentiation to the EC20 with control saline in the presence of GABA.
Pharmacokinetic parameters were calculated using noncompartmental analysis. Elimination half-life (T1/2) was calculated with R software from the linear regression of the terminal phase of the log serum concentration-time curve. The AUC0→24 was calculated with OriginLab software by trapezoidal analysis of the serum concentration-time plot. Cmax and Tmax were determined directly from observed data. Data are expressed as mean ± SEM. Statistical significance between AUC0→24 among test groups was calculated with an independent t-test (GraphPad software, San Diego, CA, USA). Time to LORR was analyzed by repeated measured ANOVA. Tolerance was determined by mean split in LORR response and confirmed with paired t-test (Week 1 vs. Week 8). Statistical significance of serum concentrations for individual time points was calculated using a two-way analysis of variance (ANOVA) analysis. Post hoc Bonferroni tests were performed when justified. Statistical significance of electrophysiology results compound GABAergic modulation was determined using a paired t-test (Vehicle control vs. Compound, GraphPad software, San Diego CA, USA). p < 0.05 was considered significant.

Data set [1] deals with P-glycoprotein (Pgp) efflux transporters. Also noted: method as in PMID 33810134, PMID 25985195. Particulars: cited from earlier work.

T1 sequence (P31644 32-462): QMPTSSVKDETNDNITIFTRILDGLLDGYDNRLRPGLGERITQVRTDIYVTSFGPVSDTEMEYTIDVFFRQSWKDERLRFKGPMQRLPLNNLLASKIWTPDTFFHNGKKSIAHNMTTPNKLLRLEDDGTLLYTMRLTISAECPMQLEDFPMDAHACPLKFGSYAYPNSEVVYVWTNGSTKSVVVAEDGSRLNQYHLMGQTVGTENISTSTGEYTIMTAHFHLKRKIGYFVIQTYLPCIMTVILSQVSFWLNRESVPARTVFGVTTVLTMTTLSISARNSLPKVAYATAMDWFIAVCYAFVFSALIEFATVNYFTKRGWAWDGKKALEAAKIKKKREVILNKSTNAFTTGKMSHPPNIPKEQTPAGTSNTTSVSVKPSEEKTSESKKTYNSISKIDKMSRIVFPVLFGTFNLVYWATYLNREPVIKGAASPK
T1 sequence (P28472 26-473): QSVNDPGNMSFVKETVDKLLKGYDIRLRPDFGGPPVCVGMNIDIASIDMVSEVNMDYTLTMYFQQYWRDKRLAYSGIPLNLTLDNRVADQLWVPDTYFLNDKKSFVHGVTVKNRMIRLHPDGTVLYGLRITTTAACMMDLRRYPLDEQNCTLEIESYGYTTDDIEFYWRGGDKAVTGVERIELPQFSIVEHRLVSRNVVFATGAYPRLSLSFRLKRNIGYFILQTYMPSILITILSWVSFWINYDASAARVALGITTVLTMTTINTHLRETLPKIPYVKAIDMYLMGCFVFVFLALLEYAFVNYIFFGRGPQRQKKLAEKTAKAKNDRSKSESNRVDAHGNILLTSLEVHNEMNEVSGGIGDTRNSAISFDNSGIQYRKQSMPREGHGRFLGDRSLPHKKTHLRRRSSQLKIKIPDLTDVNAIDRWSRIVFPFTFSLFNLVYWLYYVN
T1 sequence (P18507 40-475): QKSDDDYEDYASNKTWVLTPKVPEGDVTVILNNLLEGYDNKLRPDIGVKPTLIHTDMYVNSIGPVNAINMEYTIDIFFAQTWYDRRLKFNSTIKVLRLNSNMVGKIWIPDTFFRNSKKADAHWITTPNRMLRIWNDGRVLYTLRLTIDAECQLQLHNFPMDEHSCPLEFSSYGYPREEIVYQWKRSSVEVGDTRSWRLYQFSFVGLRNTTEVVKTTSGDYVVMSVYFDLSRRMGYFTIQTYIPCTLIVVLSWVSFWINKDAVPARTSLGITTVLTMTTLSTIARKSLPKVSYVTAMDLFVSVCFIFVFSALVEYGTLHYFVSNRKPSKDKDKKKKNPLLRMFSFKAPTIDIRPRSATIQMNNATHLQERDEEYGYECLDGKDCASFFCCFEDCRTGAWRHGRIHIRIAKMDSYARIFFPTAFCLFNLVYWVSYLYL

Consider `O=C1c2c(O)cc(O)cc2O[C@H](c2cc(O)c(O)c(O)c2)[C@H]1O` [DHM, Dihydromyricetin], for which the values for the GABAAR potentiation result at α5β3γ2 GABAA receptors and on α5β3γ2 GABAA receptors (mean ± SEM) were “+43.2%” and “+43.2 ± 5.6”, respectively. The Pgp interaction result in data set [1] was “Pgp substate and inhibitor”.
